# Experimental data from ChEMBL document CHEMBL1201862, “PubChem BioAssay data set” (2004).
# The source made the active and inactive calls.
# What was measured:
# [1] = growth suppression of beta-catenin-knockout colon cells, dose response, cell-based, HCT116, human colon tumor (AID 1045); assay type: functional;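 also: HCT116 colon tumor cells with beta catenin knocked out; cells exposed to compound for 60 hours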
# [2] = ZM109 Env clade C HIV-1 fusion inhibitors, dose response, HeLa effector, CEM target cells, luciferase, cherry-pick (AID 652058); assay type: functional, cell-based
# [3] = inhibitors of clade B AD8 Env fusion, dose response, cell-based, cherry-pick (AID 652062); assay type: functional;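 also: luciferase signal from cell-cell fusion driven by HIV-1 clade B AD8 Env; potency is for inhibitors of fusion seen as a drop in luminescence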
# [4] = inhibitors of HIV Env-driven cell fusion, dose response, cherry-pick (AID 652057); assay type: functional, cell-based
# [5] = target: T1, Calpain-2 catalytic subunit (Sus scrofa, UniProt P43367); test: pig calpain II inhibitor potency, dose response, biochemical, fluorogenic peptide substrate (AID 1420); assay type: functional
# T1 sequence (P43367 whole entry): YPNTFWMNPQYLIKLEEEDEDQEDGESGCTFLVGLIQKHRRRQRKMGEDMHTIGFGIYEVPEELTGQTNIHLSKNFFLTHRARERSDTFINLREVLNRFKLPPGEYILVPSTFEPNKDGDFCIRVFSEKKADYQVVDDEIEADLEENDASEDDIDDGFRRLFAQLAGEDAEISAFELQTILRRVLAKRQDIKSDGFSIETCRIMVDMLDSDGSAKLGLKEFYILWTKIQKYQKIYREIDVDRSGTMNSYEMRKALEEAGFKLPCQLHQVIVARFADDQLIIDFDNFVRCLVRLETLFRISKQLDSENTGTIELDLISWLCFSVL
# [6] = target: T2, Fatty acid synthase (Homo sapiens, UniProt P49327); test: FAS thioesterase domain inhibitors, dose response, biochemical, kinetic fluorescence intensity (AID 624326); assay type: functional;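 also: rate of fluorescence rise from hydrolysis of a fluorogenic O-methyl fluorescein ester substrate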
# [7] = target: T2, Fatty acid synthase; test: FAS thioesterase domain inhibitors, dose response, biochemical, endpoint fluorescence intensity, uHTS hits (AID 624327); assay type: functional;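 also: fluorescence from hydrolysis of an O-methyl fluorescein acyl ester substrate by the enzyme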
# [8] = Luminescence Cell-Based Dose Retest to Confirm Inhibitors of Cancer Stem Cells. [Related pubchem assays (depositor defined):AID2717, AID2721]; assay type: functional; conditions: Homo sapiens
# [9] = Luminescence Cell-Based Dose Confirmation HTS to Identify Inhibitors of Platelet Dense Granule Release. [Related pubchem assays: 1663 (Primary HTS), 1678 (Summary of Project)]; assay type: functional
# [10] = target: Luciferin 4-monooxygenase (Photinus pyralis, UniProt P08659); test: firefly luciferase enzyme inhibitors, dose response, biochemical, luminescence (AID 1891)
# [11] = NIH-3T3 fibroblast cytotoxicity, dose response, cytotoxicity control, cell-based, fluorescence, Alamar Blue, secondary assay (AID 2327); assay type: functional;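 also: NIH-3T3 mouse fibroblasts cultured with fluconazole at 8 µg/mL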
# [12] = C. albicans growth with fluconazole, confirmation, fluorescence, retest (AID 2467); assay type: functional, cell-based
# [13] = inhibitors of intracellular T. cruzi replication, confirmation, NIH3T3 host cells, beta-gal luminescence (AID 2044); assay type: functional, cell-based;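 also: intracellular parasites grown in NIH/3T3 mouse fibroblasts as host cells; luminescent beta-galactosidase reporter signal from transgenic T. cruzi replicating inside host cells; inhibitors lower the luminescence signal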
# [14] = cytotoxicity toward NIH3T3 fibroblasts, dose response, counter-screen, cell-based, ATP luminescence, mouse fibroblasts (AID 2010); assay type: functional;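 also: cells exposed to compound for about 90 hours before reading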
# [15] = microbe, parasite or virus in culture; assay type: functional; conditions: Mycobacterium tuberculosis
# [16] = target: T3, Streptokinase A (Streptococcus pyogenes serotype M1, UniProt P10520); test: S. pyogenes streptokinase expression inhibitors, potency, dose response, plasminogen activation absorbance, OD405 (AID 1914); assay type: functional, Streptococcus pyogenes M1 GAS;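 also: secreted streptokinase activity via plasminogen activation per viability signal from cell pellet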
# T3 sequence (P10520 whole entry): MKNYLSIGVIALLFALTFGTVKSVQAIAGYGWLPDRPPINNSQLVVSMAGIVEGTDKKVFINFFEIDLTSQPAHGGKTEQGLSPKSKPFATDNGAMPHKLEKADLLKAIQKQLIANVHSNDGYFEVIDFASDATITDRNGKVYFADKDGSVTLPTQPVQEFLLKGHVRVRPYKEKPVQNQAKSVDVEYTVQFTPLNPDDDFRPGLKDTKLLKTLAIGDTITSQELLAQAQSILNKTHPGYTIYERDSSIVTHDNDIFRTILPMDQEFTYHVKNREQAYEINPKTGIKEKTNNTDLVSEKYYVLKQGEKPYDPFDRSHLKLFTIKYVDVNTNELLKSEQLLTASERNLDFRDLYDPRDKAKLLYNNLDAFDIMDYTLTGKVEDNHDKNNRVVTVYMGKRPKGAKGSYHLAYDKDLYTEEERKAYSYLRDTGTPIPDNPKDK
# [17] = system: Streptococcus sp. 'group A'; test: growth inhibition of control SK(-) GAS strain, dose response, counter-screen for streptokinase expression inhibitor project, luminescence, kanamycin, BacTiterGlo, confirmation (AID 1900); assay type: functional, organism-based
# [18] = system: Streptococcus; test: Group A Streptococcus viability loss, dose response, counter-screen for streptokinase expression inhibitor project, luminescence, BacTiterGlo (AID 1915); assay type: functional, organism-based;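 also: potency for reduction of bacterial viability or growth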
# [19] = system: H9c2; test: cells; assay type: functional, cell-based; conditions: Rattus norvegicus, H9c2, Myocardium;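 also: confirmatory concentration-response retest of ultra-high-throughput screening hits for modulation of myocardial damage; cell death induced by hydrogen peroxide oxidative stress; compound pretreatment for 60 min then peroxide exposure for 2 h; potency is for protecting the cells against peroxide damage rather than for killing them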
# [20] = Luminescence Cell-Based Dose Response HTS to Identify Activators of Luciferase Translation or Activity in H4 […] Cells. [Related pubchem assays: 1829 (Project Summary), 1814 (Primary HTS)]; assay type: functional
# [21] = Luminescence Cell-Based Dose Confirmation HTS to Identify Activators of 5'UTR Stem-Loop Driven Alpha-Synuclein mRNA Translation in H4 Neuroglioblastoma Cells. [Related pubchem assays: 1829 (Project Summary), 1814 (Primary HTS)]; assay type: functional
# [22] = target: T4, Replicative DNA helicase DnaB (Mycobacterium tuberculosis, UniProt P9WMR3); test: DnaB intein splicing inhibitors, dose response, biochemical, cell-free fluorescence (AID 449749); assay type: functional
# T4 sequence (P9WMR3 whole entry): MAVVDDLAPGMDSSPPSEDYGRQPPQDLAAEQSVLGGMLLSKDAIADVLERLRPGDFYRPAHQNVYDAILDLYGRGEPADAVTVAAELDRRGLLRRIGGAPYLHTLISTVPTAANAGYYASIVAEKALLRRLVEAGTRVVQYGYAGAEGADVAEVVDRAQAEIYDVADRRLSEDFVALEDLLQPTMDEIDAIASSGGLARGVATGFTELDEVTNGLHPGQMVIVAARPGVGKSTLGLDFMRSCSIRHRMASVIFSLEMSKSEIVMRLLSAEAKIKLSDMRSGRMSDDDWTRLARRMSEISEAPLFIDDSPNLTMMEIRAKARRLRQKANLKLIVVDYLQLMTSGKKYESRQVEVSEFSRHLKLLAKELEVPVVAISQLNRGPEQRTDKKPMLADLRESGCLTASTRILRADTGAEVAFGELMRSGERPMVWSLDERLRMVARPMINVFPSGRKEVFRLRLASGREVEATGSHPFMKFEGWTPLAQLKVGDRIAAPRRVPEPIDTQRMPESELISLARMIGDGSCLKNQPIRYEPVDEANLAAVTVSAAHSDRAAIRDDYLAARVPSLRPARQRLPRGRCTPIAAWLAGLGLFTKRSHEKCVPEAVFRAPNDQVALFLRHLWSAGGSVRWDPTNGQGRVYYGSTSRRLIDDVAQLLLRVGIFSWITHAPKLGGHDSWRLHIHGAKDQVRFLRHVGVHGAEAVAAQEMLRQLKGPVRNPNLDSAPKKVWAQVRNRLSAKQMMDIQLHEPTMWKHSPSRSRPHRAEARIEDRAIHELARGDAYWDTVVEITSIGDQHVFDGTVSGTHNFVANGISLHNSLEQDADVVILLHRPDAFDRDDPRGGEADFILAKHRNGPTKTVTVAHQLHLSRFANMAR
# [23] = system: H4; test: Luminescence Cell-Based Dose Response HTS to Identify Activators of 5'UTR Stem-Loop Driven Prion Protein mRNA Translation in H4 Neuroglioblastoma Cells. [Related pubchem assays: 1829 (Project Summary), 1814 (Primary HTS)]; assay type: functional; conditions: Homo sapiens
# [24] = target: T5, Protein RecA (Mycobacterium tuberculosis, UniProt P9WHJ3); test: Fluorescence Cell-Free Homogeneous Dose Retest to Identify Inhibitors of RecA-Intein Splicing Activity. [Related pubchem assays (depositor defined):AID2097, AID2223, AID489010, AID492950]; assay type: functional
# T5 sequence (P9WHJ3 whole entry): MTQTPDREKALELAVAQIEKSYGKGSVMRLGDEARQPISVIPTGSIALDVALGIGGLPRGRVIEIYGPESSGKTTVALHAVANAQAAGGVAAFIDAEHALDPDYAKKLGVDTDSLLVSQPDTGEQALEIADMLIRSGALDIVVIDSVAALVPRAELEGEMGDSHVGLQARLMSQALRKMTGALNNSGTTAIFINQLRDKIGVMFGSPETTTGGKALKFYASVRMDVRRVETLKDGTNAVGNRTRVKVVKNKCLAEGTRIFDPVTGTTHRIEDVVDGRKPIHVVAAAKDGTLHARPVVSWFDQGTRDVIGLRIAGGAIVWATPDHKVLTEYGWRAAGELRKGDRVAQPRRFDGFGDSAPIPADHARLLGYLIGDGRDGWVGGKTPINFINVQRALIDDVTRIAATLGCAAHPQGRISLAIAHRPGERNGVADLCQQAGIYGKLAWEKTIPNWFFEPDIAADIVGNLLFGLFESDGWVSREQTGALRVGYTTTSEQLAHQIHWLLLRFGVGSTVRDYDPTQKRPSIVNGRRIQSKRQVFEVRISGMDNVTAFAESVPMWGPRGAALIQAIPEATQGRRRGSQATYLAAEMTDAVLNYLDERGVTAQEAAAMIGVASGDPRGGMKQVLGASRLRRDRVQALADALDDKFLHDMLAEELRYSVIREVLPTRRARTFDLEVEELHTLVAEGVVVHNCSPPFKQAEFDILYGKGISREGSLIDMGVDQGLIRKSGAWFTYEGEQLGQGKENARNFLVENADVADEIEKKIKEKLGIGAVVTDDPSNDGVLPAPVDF
# T2 sequence (P49327 whole entry, the tested form may be a part): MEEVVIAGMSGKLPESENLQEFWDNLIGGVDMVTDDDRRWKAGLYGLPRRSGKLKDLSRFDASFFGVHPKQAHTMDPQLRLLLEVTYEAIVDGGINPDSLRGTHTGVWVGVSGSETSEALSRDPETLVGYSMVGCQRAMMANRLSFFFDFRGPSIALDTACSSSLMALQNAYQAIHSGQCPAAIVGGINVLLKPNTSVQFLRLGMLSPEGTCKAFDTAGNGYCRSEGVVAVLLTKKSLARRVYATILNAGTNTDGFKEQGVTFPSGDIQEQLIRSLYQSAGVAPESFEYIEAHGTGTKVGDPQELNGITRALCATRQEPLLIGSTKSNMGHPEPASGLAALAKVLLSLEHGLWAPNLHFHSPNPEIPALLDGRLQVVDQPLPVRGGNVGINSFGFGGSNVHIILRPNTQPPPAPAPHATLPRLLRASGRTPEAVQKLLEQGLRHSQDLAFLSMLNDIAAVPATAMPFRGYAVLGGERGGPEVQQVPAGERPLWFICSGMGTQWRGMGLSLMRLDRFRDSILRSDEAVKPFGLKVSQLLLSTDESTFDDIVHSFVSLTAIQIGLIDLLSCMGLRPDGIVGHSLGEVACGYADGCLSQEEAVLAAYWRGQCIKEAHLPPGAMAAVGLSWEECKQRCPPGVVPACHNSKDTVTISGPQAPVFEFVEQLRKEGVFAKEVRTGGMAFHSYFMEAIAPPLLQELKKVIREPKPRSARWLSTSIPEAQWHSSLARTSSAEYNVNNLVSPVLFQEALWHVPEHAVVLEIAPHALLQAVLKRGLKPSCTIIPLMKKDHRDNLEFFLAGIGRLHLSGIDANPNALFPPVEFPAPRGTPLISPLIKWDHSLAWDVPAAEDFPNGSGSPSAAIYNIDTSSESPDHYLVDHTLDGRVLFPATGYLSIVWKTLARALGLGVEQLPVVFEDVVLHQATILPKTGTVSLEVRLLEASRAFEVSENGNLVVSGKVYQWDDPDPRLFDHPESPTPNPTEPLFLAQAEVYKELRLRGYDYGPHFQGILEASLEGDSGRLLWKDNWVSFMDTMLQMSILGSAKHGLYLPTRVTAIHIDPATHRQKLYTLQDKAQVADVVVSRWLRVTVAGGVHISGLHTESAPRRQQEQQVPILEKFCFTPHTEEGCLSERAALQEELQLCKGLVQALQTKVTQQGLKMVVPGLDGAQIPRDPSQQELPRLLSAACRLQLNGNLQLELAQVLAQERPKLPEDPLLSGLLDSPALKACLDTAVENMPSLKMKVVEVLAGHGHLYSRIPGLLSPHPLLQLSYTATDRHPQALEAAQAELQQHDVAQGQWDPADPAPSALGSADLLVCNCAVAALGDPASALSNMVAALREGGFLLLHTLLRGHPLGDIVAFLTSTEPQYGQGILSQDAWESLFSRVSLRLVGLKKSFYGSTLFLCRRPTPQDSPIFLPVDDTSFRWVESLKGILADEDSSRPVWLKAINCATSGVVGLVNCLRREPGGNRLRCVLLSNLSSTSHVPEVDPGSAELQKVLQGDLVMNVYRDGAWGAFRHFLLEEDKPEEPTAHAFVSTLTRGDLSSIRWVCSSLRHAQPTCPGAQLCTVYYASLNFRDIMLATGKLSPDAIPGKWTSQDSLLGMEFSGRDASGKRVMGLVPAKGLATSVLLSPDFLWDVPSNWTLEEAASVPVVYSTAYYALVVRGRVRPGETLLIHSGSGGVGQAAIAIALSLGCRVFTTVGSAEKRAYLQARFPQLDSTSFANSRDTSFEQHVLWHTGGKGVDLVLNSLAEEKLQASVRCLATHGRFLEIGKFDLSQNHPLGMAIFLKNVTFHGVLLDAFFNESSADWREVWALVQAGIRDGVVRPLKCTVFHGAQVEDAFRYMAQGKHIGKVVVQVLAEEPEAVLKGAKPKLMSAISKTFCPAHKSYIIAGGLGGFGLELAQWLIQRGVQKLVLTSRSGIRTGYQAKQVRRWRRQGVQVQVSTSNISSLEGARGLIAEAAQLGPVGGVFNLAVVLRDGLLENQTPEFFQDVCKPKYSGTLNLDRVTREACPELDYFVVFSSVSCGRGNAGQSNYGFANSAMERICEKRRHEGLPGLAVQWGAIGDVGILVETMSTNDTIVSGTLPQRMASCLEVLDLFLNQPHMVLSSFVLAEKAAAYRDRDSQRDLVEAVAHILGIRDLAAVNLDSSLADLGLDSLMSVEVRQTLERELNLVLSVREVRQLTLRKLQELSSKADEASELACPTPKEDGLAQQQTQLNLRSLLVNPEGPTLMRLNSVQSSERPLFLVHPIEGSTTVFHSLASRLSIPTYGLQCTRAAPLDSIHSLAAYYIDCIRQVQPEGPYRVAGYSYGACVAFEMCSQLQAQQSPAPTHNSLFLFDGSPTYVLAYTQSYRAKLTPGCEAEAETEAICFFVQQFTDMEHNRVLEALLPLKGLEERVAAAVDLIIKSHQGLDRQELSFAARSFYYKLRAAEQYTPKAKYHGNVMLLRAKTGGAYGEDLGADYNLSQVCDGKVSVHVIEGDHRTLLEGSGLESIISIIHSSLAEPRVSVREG
# Chain of Luciferin 4-monooxygenase (P08659 whole entry): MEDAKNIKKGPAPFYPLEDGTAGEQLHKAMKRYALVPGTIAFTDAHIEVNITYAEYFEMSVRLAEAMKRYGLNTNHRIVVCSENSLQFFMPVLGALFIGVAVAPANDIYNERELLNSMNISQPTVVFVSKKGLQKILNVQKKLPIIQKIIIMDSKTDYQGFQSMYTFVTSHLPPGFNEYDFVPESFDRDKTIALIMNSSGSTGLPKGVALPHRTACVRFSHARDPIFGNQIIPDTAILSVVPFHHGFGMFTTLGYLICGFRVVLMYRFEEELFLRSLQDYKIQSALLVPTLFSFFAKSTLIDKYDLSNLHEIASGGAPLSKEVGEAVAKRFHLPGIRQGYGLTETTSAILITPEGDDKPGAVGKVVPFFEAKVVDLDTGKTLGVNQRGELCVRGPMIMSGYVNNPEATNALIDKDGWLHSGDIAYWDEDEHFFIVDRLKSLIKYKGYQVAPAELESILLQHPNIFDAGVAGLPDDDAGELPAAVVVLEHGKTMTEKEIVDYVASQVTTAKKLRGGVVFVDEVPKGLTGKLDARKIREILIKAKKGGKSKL
compound,measurement,setting,value
COc1cc2c(cc1OC)C1(Nc3c-2c(C)nn3-c2ccccc2)C(=O)Nc2ccccc21 (stereo not given),EC50,[1],73.2 µM (active)
C[C@H](CO)N1C[C@H](C)[C@H](CN(C)S(=O)(=O)c2cccc(F)c2)Oc2cc(Br)ccc2S1(=O)=O,AC50,[2],3.27 µM (active)
same,AC50,[3],33.5 µM (active)
same,AC50,[4],5.29 µM (active)
O=C(NCc1ccccc1Cl)C1CCCN(c2nc3ccsc3c(=O)s2)C1 (stereo not given),IC50,[5],15.9 µM (not active)
COc1ccc(CC(=O)N(C)Cc2ccc(C(C)(C)C)cc2)cc1S(=O)(=O)N1CCOCC1,IC50,[6],2.02 µM (active)
same,IC50,[7],2.25 µM (active)
O=C1C=C(c2ccc(Cl)c(C(F)(F)F)c2)C[C@@H](c2ccc3c(c2)OCO3)C1,AC50,[8],5.04 µM (active)
same,IC50,[6],5.82 µM (active)
same,IC50,[7],5.66 µM (active)
Cc1ccc(SCC(=O)OC(C)C(=O)NCc2ccccc2)cc1 (stereo not given),EC50,[9],> 112 µM (not active)
same,EC50,[10],> 112 µM (not active)
CCN(CC(O)Cn1c2ccccc2c2ccccc21)S(=O)(=O)c1ccc(F)cc1 (stereo not given),IC50,[5],6.55 µM (not active)
CCN(C(=O)CSc1nnc(C)n1-c1ccccc1)C1CCS(=O)(=O)C1 (stereo not given),EC50,[9],> 112 µM (not active)
same,EC50,[10],> 112 µM (not active)
O=C(COc1ccc([N+](=O)[O-])cc1)NNC(=S)NC(=O)c1ccc(Br)cc1,EC50,[11],> 150 µM (inactive)
same,EC50,[12],3.09 µM (active)
C[C@H](CO)N1C[C@H](C)[C@H](CN(C)Cc2ccccc2)Oc2cc(-c3ccccc3)ccc2S1(=O)=O,AC50,[2],21 µM (active)
same,AC50,[3],26.7 µM (active)
same,AC50,[4],18.9 µM (active)
O=C(NC1CCCCC1)C12CC3CC(CC(Cl)(C3)C1)C2,EC50,[9],> 112 µM (not active)
same,EC50,[10],> 112 µM (not active)
Cc1ccc(-c2nc3c(c(=O)[nH]c(=O)n3CC(C)C)n2CC(C)C)cc1[N+](=O)[O-],IC50,[5],16.1 µM (not active)
same,EC50,[13],1.41 µM (active)
same,EC50,[14],> 30 µM (not active)
O=C(COC(=O)c1cc([N+](=O)[O-])ccc1Cl)NC1CCCC1,IC50,[6],1.12 µM (active)
same,IC50,[7],0.979 µM (active)
O=C(O)CCN(CC(=O)c1ccc(Cl)cc1)S(=O)(=O)c1ccc([N+](=O)[O-])cc1,IC50,[6],4.83 µM (active)
same,IC50,[7],5.21 µM (active)
CCCCn1c(-c2ccc(C(C)(C)C)cc2)nc2cc3nc(O)c(C(C)C)nc3cc21,CC50,[15],32.7 µM (active)
CC(=O)c1cnc2cc(-c3cccc(Br)c3)nn2c1C,EC50,[11],> 150 µM (inconclusive)
same,EC50,[12],> 38 µM (not active)
O=C(CSc1nc(Nc2ccccc2)nc(N2CCOCC2)n1)Nc1cc(Cl)ccc1O,EC50,[16],30.7 µM (active)
same,CC50,[15],17 µM (active)
same,EC50,[17],6.55 µM (active)
same,EC50,[18],18.5 µM (active)
CCOC(=O)CNS(=O)(=O)c1cc(-c2nnc(O)c3ccccc23)ccc1C,EC50,[9],7.49 µM (active)
same,EC50,[10],> 112 µM (not active)
same,IC50,[19],> 79 µM (inactive)
COc1ccc(C(=O)/C=C/Sc2nc3ccccc3o2)cc1,EC50,[20],96.7 µM (active)
same,EC50,[21],17.4 µM (active)
same,AC50,[22],> 380 µM (inactive)
same,CC50,[15],32.4 µM (active)
same,EC50,[23],14.5 µM (active)
same,EC50,[24],54.4 µM (active)
O=C(COc1ncnc2cc([N+](=O)[O-])ccc12)N(CCc1ccccc1)Cc1ccccc1,IC50,[6],22.2 µM (inactive)
same,IC50,[7],5.94 µM (active)
COc1ccc2[nH]c3c(c2c1)CCN1C(=O)C(CC(=O)NCCc2ccccn2)C[C@H](C(=O)N2CCOCC2)[C@@]31CCC1CCCC1 (stereo not given in full),IC50,[6],8.91 µM (active)
same,IC50,[7],7.16 µM (active)
NC1=NC2(CCC(c3ccccc3)CC2)n2c(nc3ccccc32)N1 (stereo not given),CC50,[15],29.3 µM (active)
CCCCNC(=S)N/N=C/c1ccccc1F,IC50,[5],5.17 µM (active)
Cc1nc2ccc([N+](=O)[O-])cc2c(=O)n1Cc1ccc(F)cc1,IC50,[6],4.49 µM (active)
same,IC50,[7],3.27 µM (active)
CC(C)(C)OC(=O)Nc1ncnc2c1ncn2C1OC(CO)C2OC(C)(C)OC21 (stereo not given),EC50,[9],> 112 µM (not active)
same,EC50,[10],> 112 µM (not active)
